Results as given in PMC9696794, “Synthesis and Antimicrobial Activity of Short Analogues of the Marine Antimicrobial Peptide Turgencin A: Effects of SAR Optimizations, Cys-Cys Cyclization and Lipopeptide Modifications” (International Journal of Molecular Sciences, 2022).
≈ marks a conversion by molar mass, not a printed value. Where a SMILES comes first, the peptide text is derived from it. Bridges are numbered along the chain shown (N, C = ends). The star is where a group is joined. Lauroyl = CCCCCCCCCCCC(=O)*; Octanoyl = CCCCCCCC(=O)*

Legend:
[1] = test system: E. coli MC4100 (WT); experiment: Outer membrane permeability assay (NPN uptake fluorescence); format: cell-based, Escherichia coli
Method: The outer membrane of Gram-negative bacteria acts as a barrier for many hydrophobic and larger hydrophilic substances (>600 Da). However, some peptides can sensitize the outer membrane and thus facilitate the entry of various hydrophobic molecules. To explore if the peptides affect the outer membrane of E. coli MC4100, C12-cTurg-1 and C8-cTurg-2 were tested for their ability to enable the entry of the hydrophobic fluorescent probe 1-N-phenylnapthylamine (NPN, MW of 219 Da) (Figure 5). […] Normally, the hydrophobic NPN is excluded by E. coli bacteria, but it can enter the bacteria once the integrity of the outer membrane is compromised. […] Thus, the observed effects indicate that the outer membrane passage of C8-cTurg-2 was a rate-limiting step that was most likely preventing the peptide from reaching and accumulating in the inner membrane.
The permeability of the E. coli outer membrane was analysed by measuring increased fluorescence as kinetics of 1-N-phenylnaphthylamine (NPN, Sigma-Aldrich) uptake following the protocol described by, with minor modifications. Briefly, a single colony of E. coli MC4100 (WT) was suspended in MH medium and incubated overnight at 37 °C with shaking (225 rpm). The culture was diluted in MH medium and adjusted to OD600 = 0.1 and incubated at 37 °C until it reached an OD600 of 0.5. The cells were centrifuged and washed twice with an assay buffer (5 mM HEPES, 5 mM glucose, pH 7.2) and resuspended in the same buffer to a final OD600 of 1.0. E. coli MC4100 cells were mixed with 20 µM NPN. The assay set up was the same as for the membrane integrity and viability assay, using black round-bottom 96-well microtiter plates (Nunc) containing 10 µL of 2-fold dilutions of peptides (500 to 31.2 µg/mL). A volume of 90 µL of cell suspension with NPN was added to each well by the automated injector of the Synergy H1 Hybrid Reader. The fluorescence was immediately measured (well by well) at an excitation wavelength of 350 nm and an emission wavelength of 420 nm every second for 3 min. The relative fluorescence was calculated by normalizing the values from each time point with the negative control (Milli-Q water). CHX was included as a positive control.

[2] = test system: P. aeruginosa (Pa, ATCC 27853); experiment: microbe, parasite or virus in culture; format: cell-based, Pseudomonas aeruginosa; details: for Antimicrobial Activity (MIC) Gram − Pa: ATCC 27853, 24 h
Procedure, shortened: (§1)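 Cultures grown in Mueller–Hinton broth were adjusted by OD600 to 2.5–3 × 10^4 CFU/mL and mixed with two-fold peptide dilutions from 256 to 1 µg/mL. Plates were incubated at 35 °C with OD595 monitored every hour for 24 h.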

[3] = test system: Rhodotorula sp. (Rh); experiment: microbe, parasite or virus in culture; format: cell-based; details: 48 h
Procedure, shortened: (§2)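 Overnight cultures in potato dextrose broth with 2% glucose at 25–30 °C were diluted to approx. 4 × 10^5 spores/mL and mixed 1:1 with two-fold peptide dilutions plated at 256 to 1 µg/mL. After 48 h at room temperature, OD600 was read. MIC was the lowest concentration giving OD below 10% of the growth control, in triplicate.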

[4] = test system: E. coli NR698 (outer membrane permeable mutant, imp4213); experiment: microbe, parasite or virus in culture; details: for MIC E. coli NR698 (mutant): MC4100 NR698 imp4213, deficient outer membrane
Procedure, shortened: (§3)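 Broth microdilution in Mueller–Hinton medium, 2.5–3 × 10^4 CFU/mL inoculum, two-fold peptide dilutions from 256 to 1 µg/mL, 35 °C with OD595 read hourly for 24 h. MIC is the lowest concentration giving OD below 10% of the untreated growth control; run in triplicate.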

[5] = test system: E. coli MC4100 (wild type, WT); experiment: microbe, parasite or virus in culture; details: for MIC E. coli MC4100 (WT): wild type
Procedure, shortened: as §3

[6] = test system: S. epidermidis RP62A (Se, ATCC 35984); experiment: microbe, parasite or virus in culture; format: cell-based, Staphylococcus epidermidis; details: for Antimicrobial Activity (MIC) Gram + Se: ATCC 35984, 24 h
Procedure, shortened: as §1

[7] = test system: C. albicans (Ca, ATCC 10231); experiment: microbe, parasite or virus in culture; format: cell-based, Candida albicans; details: for Antimicrobial Activity (MIC) Fungi Ca: ATCC 10231, 48 h
Procedure, shortened: as §2

[8] = test system: A. pullulans (Ap); experiment: microbe, parasite or virus in culture; format: cell-based, Aurobasidium pollulans; details: 48 h
Procedure, shortened: as §2

| SMILES | effect on NPN fluorescence (outer membrane permeabilization) ([1]; E. coli MC4100, 20 µM NPN, 3 min) | MIC ([2]; Pseudomonas aeruginosa, ATCC27853, P. aeruginosa ATCC 27853, 24 h, read-out: Antimicrobial Activity (MIC) Gram − Pa) | MIC ([3]; Rhodotorula sp., read-out: Antimicrobial Activity (MIC) Fungi Rh) | MIC ([4]; Escherichia coli, read-out: MIC E. coli NR698 (mutant)) | MIC ([5]; Escherichia coli, read-out: MIC E. coli MC4100 (WT)) | MIC ([6]; Staphylococcus epidermidis, ATCC35984, S. epidermidis RP62A ATCC 35984, 24 h, read-out: Antimicrobial Activity (MIC) Gram + Se) | MIC ([7]; Candida albicans, ATCC10231, C. albicans ATCC 10231, 48 h, read-out: Antimicrobial Activity (MIC) Fungi Ca) | MIC ([8]; Aureobasidium pullulans, A. pullulans, read-out: Antimicrobial Activity (MIC) Fungi Ap) | effect on NPN fluorescence (outer membrane permeabilization) ([1]; not told) | Antimicrobial Activity (MIC) Gram − Pa [2] | Antimicrobial Activity (MIC) Fungi Rh [3] | MIC E. coli NR698 (mutant) [4] | MIC E. coli MC4100 (WT) [5] | Antimicrobial Activity (MIC) Gram + Se [6] | Antimicrobial Activity (MIC) Fungi Ca [7] | Antimicrobial Activity (MIC) Fungi Ap [8] | increase in NPN fluorescence ([1]; E. coli MC4100, 25 to 50 µg/mL) |
| --- | --- | --- | --- | --- | --- | --- | --- | --- | --- | --- | --- | --- | --- | --- | --- | --- | --- |
| [H]/N=C(\N/C(=N/[H])NCCCCCCNC(=N)NC(=N)Nc1ccc(Cl)cc1)Nc1ccc(Cl)cc1 [Chlorhexidine, reference compound] | increase the NPN fluorescence in a concentration-dependent manner | 6.3 µg/mL (≈ 12.5 µM) | 1 µg/mL | 0.3 µg/mL (≈ 0.594 µM) | 0.3 µg/mL (≈ 0.594 µM) | 1.6 µg/mL | 7.8 µg/mL | 1 µg/mL | – | – | – | – | – | – | – | – | – |
| CCCCCCCC(=O)N[C@H]1CSSC[C@@H](C(=O)N[C@@H](CCCCN)C(=O)N[C@@H](CC(C)C)C(N)=O)NC(=O)[C@H](CCCCN)NC(=O)[C@H](Cc2c[nH]c3ccccc23)NC(=O)CNC(=O)[C@H](Cc2c[nH]c3ccccc23)NC(=O)[C@H](Cc2c[nH]c3ccccc23)NC(=O)[C@H](CCCCN)NC(=O)[C@H](CCCCN)NC(=O)CNC1=O [Peptide C8-cTurg-2, C8- (CGKKWWGWKC)KL-NH2] (Octanoyl-CGKKWWGWKCKL-NH2; disulfide 1-10) | – | – | – | – | – | – | – | – | increase the NPN fluorescence in a concentration-dependent manner | 8 µg/mL | 4 µg/mL | 2 µg/mL (≈ 1.21 µM) | 8 µg/mL (≈ 4.86 µM) | 4 µg/mL | 32 µg/mL | 16 µg/mL | – |
| CCCCCCCCCCCC(=O)N[C@H]1CSSC[C@@H](C(=O)N[C@@H](CCCCN)C(=O)N[C@@H](CC(C)C)C(N)=O)NC(=O)[C@H](CCCCN)NC(=O)[C@H](Cc2c[nH]c3ccccc23)NC(=O)CNC(=O)CNC(=O)[C@@H]2CCCN2C(=O)[C@H](CCCCN)NC(=O)[C@H](CCCCN)NC(=O)CNC1=O [Peptide C12-cTurg-1, C12 -(CGKKPGGWKC)KL-NH2] (Lauroyl-CGKKPGGWKCKL-NH2; disulfide 1-10) | – | – | – | – | – | – | – | – | increase the NPN fluorescence in a concentration-dependent manner | 16 µg/mL | 4 µg/mL | 2 µg/mL (≈ 1.35 µM) | 4 µg/mL (≈ 2.7 µM) | 4 µg/mL | 64 µg/mL | 32 µg/mL | almost a four-fold increase |
